Test results: PMC12898745, “VOCs Profiling and Quality Assessment of Milk Employing Odorant-Binding Proteins-Based Fluorescence Biosensor” (International Journal of Molecular Sciences, 2026)
Read-outs that look alike come from different tables or passages of the source.

T1: bOBP (Bos taurus, UniProt P07435)
T1 sequence (P07435 1-159): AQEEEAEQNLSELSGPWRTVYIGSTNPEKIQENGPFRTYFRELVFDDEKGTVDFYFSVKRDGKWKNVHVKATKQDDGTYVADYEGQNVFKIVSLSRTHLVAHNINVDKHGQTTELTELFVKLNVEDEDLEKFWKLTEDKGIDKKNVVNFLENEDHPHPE

T2: pOBP (Sus scrofa, UniProt P81245)
T2 sequence (P81245 1-157): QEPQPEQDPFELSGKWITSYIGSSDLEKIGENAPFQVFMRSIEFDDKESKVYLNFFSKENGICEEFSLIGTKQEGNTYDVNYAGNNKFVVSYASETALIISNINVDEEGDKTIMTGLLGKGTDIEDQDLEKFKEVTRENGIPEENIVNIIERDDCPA

T3: bOBP (Bos taurus, UniProt P07435, H155C/INS121G/W64C)
T3 construct: His tag; made in house
T3 sequence (P07435 with tags, fused parts or gaps W64C/INS121G/H155C): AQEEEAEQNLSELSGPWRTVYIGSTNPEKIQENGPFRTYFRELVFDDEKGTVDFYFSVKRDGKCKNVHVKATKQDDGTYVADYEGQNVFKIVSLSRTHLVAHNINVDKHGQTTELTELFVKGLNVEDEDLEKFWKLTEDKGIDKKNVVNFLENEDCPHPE


Tests used:
bOBP [1] = molecular target: T1, bOBP; experiment: Fluorescence titration with 1-AMA and competitive FRET assay on bOBP; type: binding, bovine; details: read-out: bOBP Kd ± SD; non-linear fitting; PBS pH 7.4; VOCs by displacement of 1-AMA
Protocol: (§1) The ability of pOBP and bOBP to bind 1-AMA was assessed through fluorescence titration experiments. […] However, upon binding 1-AMA to OBPs, two major spectral changes were observed: • A blue-shift in the emission maximum to 481 nm, along with a significant increase in fluorescence intensity. • A decrease in the tryptophan fluorescence emission at 340 nm.
A competitive FRET assay was performed to study the interaction between the OBP and the selected VOCs. In the assay, a solution of OBPs in the presence of 1-AMA was titrated with increasing concentrations of VOCs. The fluorescence emissions at 481 nm (1-AMA bound state) and 340 nm (tryptophan emission) were recorded. A progressive decrease of 1-AMA fluorescence emission and a partial recovery of the protein tryptophan emission were observed. […] The variations in the FRET signals, due to competitive binding, were used to quantify the VOC bound to the protein.
Steady-state fluorescence measurements were conducted using an ISS K2 Frequency-Domain Fluorometer (ISS Inc., Champaign, IL, USA) with a 1.0 cm path length quartz cuvette. Fluorescence spectra of bOBP and pOBP samples were recorded, ensuring optical densities below 0.1 OD at 295 nm to prevent inner filter effects. […] The OBPs-VOCs interactions were studied by a fluorescence titration approach. […]

pOBP [2] = molecular target: T2, pOBP; experiment: Fluorescence titration with 1-AMA and competitive FRET assay on pOBP; type: binding, porcine
Protocol: as §1
A competitive FRET assay was performed to study the interaction between the OBP and the selected VOCs. In the assay, a solution of OBPs in the presence of 1-AMA was titrated with increasing concentrations of VOCs. The fluorescence emissions at 481 nm (1-AMA bound state) and 340 nm (tryptophan emission) were recorded. A progressive decrease of 1-AMA fluorescence emission and a partial recovery of the protein tryptophan emission were observed. This trend indicates the displacement of 1-AMA from the protein binding site by individual selected VOCs. The variations in the FRET signals, due to competitive binding, were used to quantify the VOC bound to the protein.
Steady-state fluorescence measurements were conducted using an ISS K2 Frequency-Domain Fluorometer (ISS Inc., Champaign, IL, USA) with a 1.0 cm path length quartz cuvette. Fluorescence spectra of bOBP and pOBP samples were recorded, ensuring optical densities below 0.1 OD at 295 nm to prevent inner filter effects. Tryptophan (Trp) residues were excited at 295 nm, and fluorescence emission spectra were collected from 320 nm to 600 nm at 1 nm intervals, with a scan speed of 100 nm/min and excitation and emission slit widths set at 1.0 nm. The lamp power was maintained at 17.5 A. Assays were performed in 500 μL of phosphate saline buffer (PBS) at pH 7.4. The OBPs-VOCs interactions were studied by a fluorescence titration approach. For this purpose, the protein (12 µM, saturated with 1-AMA) was titrated with increasing concentrations of the tested VOC. The measurements were carried out in triplicate, and the obtained experimental data were processed by OriginPro 2021b software.
For the fluorometric competitive assay, the ability of OBPs to bind VOCs and 1-AMA was utilized to develop a FRET-based assay. The competition between VOCs and 1-AMA for binding to the OBP’s active site was studied by monitoring the fluorescence emission decrease consequent to the VOCs displacement of 1-AMA from the OBP’s active site. […] The measurements were carried out in triplicate, and the data were analyzed using the OriginPro 2021b software.

pOBP [3] = molecular target: T2, pOBP; experiment: HS-SPME/GC-MS binding assay with pOBP; design: species or system porcine; details: pOBP 30 µM; 10 µM volatile, overnight, room temperature
Protocol: To assess the ability of pOBP to bind VOCs, HS-SPME/GC-MS analyses were carried out on binding assays in the absence and in the presence of the two OBPs. Binding assay experiments were conducted in parallel on samples in the absence (only buffer as negative control) and in the presence of bovine serum albumin (BSA) (used as negative control of protein) or pOBP.
The HS-SPME/GC-MS technique was used to evaluate the VOCs profiles of samples of raw cow milk and, successively, the ability of purified OBPs to bind to selected VOCs in the gas phase. According to Sacchi et al., 5 mL of milk were introduced in a HS-SPME 20 mL glass vial, with 5 µL of a standard solution of 2-methyl-3-pentanone used as internal standard (IS, 5 mM). Samples were equilibrated for 30 min at 55 °C to release VOCs. […] The analyses were carried out using the pulsed spitless mode, and mass spectra were recorded at an ionization energy of 70 eV, with mass selective detector operating in the mass range between 30 and 300 u. […]
Linear retention indices (LRIs) were calculated using the same chromatographic conditions by injecting C8–C40 n-alkane series (Supelco, Bellefonte, PA, USA). VOCs were identified by comparing the mass spectra reported in the NIST-2014 and Wiley 7.0 libraries by matching the calculated LRI with the literature data and by valuating their retention times, with respect to those of pure standards, if available. The VOCs concentrations were expressed as the equivalent of the IS (percent ratio of the respective peak area relative to the IS area, RPA%), and areas were taken from the total ion chromatogram (TIC) according to the following equation: (Peak Area of each VOC/Peak Area IS) × 100.
Using the same experimental parameters reported above, HS-SPME/GC-MS analysis was also performed on pOBP samples with and without exposition to the HS of the selected VOCs. […] The peak areas measured for PBS-only and pOBP-comprising samples were compared for each experiment. […]

[4] = molecular target: bovine serum albumin (BSA) (Bos taurus, UniProt P02769); experiment: HS-SPME/GC-MS binding assay with BSA (negative control protein); details: BSA in place of pOBP; 10 µM volatile, overnight, room temperature
Protocol: Afterwards, the fiber (DVB-Carboxen-PDMS, 2 cm length SUPELCO, Bellefonte, PA, USA) was automatically inserted in the vial for 60 min and then desorbed for 10 min at 250 °C in the injector port of a GC, model 7890A, Agilent (Agilent Technologies, Santa Clara, CA, USA) coupled to a mass spectrometer, model 5975 C (Agilent), where VOCs were thermally released and directly transported to a capillary column HP-Innowax (30 m × 0.25 mm × 0.5 µm Agilent J&W) for analysis. The oven temperature was set as follows: 40 °C for 1 min, ramped to 160 °C at 6 °C min^−1, then, after 1 min, increased 10 °C min^−1 to 210 °C, and finally ramped to 230 °C at 15 °C min^−1, and kept there for 5 min. The temperatures of the ion source and the quadrupole were 230 °C and 150 °C, respectively, and helium at a flow rate of 1.0 mL min^−1 was the carrier gas. The analyses were carried out using the pulsed spitless mode, and mass spectra were recorded at an ionization energy of 70 eV, with mass selective detector operating in the mass range between 30 and 300 u. […]
Linear retention indices (LRIs) were calculated using the same chromatographic conditions by injecting C8–C40 n-alkane series (Supelco, Bellefonte, PA, USA). VOCs were identified by comparing the mass spectra reported in the NIST-2014 and Wiley 7.0 libraries by matching the calculated LRI with the literature data and by valuating their retention times, with respect to those of pure standards, if available. The VOCs concentrations were expressed as the equivalent of the IS (percent ratio of the respective peak area relative to the IS area, RPA%), and areas were taken from the total ion chromatogram (TIC) according to the following equation: (Peak Area of each VOC/Peak Area IS) × 100. […]

pOBP [5] = molecular target: T2, pOBP; experiment: Thermal denaturation of pOBP by tryptophan fluorescence; type: physicochemical, porcine; details: for effect of VOC on thermal stability (Tm) of pOBP: saturating concentrations: 1-pentanol 50 mM, 1-octen-3-ol 5 mM, 2-butanone 10 mM
Protocol: (§2) Thermal stability studies were conducted to evaluate the temperature-induced denaturation of the pOBP and bOBP. The experiments aimed to determine the unfolding dynamics of these proteins and assess the influence of VOCs on protein stability. The thermal stabilities of pOBP and bOBP were monitored by fluorescence spectroscopy. The temperature-dependent fluorescence emission spectra were recorded in the range 320–410 nm, with excitation at 295 nm to selectively excite tryptophan residues.
(§3) Boltzmann fitting was applied to describe the thermal denaturation behavior and determine the melting temperature (Tm) values, defined as the midpoint of the transition between the folded and unfolded states. The calculated Tm values were 62 ± 0.4 °C for pOBP (Figure 6b) and 54 ± 0.5 °C for bOBP (Figure 7b).
(§4) To analyze the protein’s thermal stability, studies on temperature-induced denaturation were conducted on the chosen OBPs in the absence and presence of the selected VOCs. The emission spectra were recorded at an excitation wavelength of 295 nm to focus only on the contribution of tryptophan residues with a 12 μM pOBP sample, with an optical density around 0.1 OD at 295 nm.
Fluorescence intensity variation was recorded in the temperature range from 25 to 95 °C and the emission spectra acquired in the wavelength range 320–410 nm. Measurements were performed in triplicate after 10 min of incubation at defined temperatures. […] To analyze the thermal denaturation data, OriginPro 2021b software was used.

bOBP [6] = molecular target: T3, bOBP; experiment: Thermal denaturation of bOBP by tryptophan fluorescence; type: physicochemical, bovine; details: saturating VOC concentrations
Protocol: as §2, §3, §4
Fluorescence intensity variation was recorded in the temperature range from 25 to 95 °C and the emission spectra acquired in the wavelength range 320–410 nm. […]

pOBP [7] = molecular target: T2, pOBP; design: method as in earlier work; details: HS-DSC, neutral pH; ref 21 (Staiano et al. 2007); cited from earlier work
pOBP [8] = molecular target: T2, pOBP; experiment: Fluorescence quenching (Stern-Volmer) of pOBP; design: species or system porcine; details: acrylamide quencher, no VOC
Protocol: To study the protein conformational changes and accessibility to the tryptophan residues, fluorescence quenching experiments were conducted. According to Lakowicz, acrylamide is the most suitable quencher for tryptophan fluorescence. The quenching effect of acrylamide on the intrinsic fluorescence of the protein was analyzed. The study aimed to characterize the accessibility of tryptophan residues, to differentiate between static and dynamic quenching mechanisms, and to assess the effects of the VOCs binding on protein stability. Fluorescence quenching can occur through two primary mechanisms: dynamic (collisional) and static quenching. Dynamic quenching occurs when acrylamide molecules collide with the fluorophore in its excited state, facilitating a non-radiative energy transfer or electron exchange. […]
To evaluate the solvent accessibility of the OBP’s tryptophan residues, a fluorescence quenching assay was performed using acrylamide. […] Fluorescence emission spectra were acquired using an excitation wavelength of 295 nm and emission range from 310 to 410 nm.
Quenching data were evaluated using the Stern–Volmer equation by plotting F0/F against [Q], where F0 represents the fluorescence intensity without quencher, F is the fluorescence intensity in the presence of quencher, and [Q] denotes the quencher concentration [Equation (2)]:(2) F0/F=1+KSV [Q]

[9] = competitive titration with VOC, Figure 4 insets, read-out: k (Hill fit), decrease of 1-AMA emission at 481 nm, pOBP
[10] = non-linear fitting, PBS pH 7.4, VOCs by displacement of 1-AMA, read-out: pOBP Kd ± SD

Chain of bovine serum albumin (BSA) (P02769 25-607): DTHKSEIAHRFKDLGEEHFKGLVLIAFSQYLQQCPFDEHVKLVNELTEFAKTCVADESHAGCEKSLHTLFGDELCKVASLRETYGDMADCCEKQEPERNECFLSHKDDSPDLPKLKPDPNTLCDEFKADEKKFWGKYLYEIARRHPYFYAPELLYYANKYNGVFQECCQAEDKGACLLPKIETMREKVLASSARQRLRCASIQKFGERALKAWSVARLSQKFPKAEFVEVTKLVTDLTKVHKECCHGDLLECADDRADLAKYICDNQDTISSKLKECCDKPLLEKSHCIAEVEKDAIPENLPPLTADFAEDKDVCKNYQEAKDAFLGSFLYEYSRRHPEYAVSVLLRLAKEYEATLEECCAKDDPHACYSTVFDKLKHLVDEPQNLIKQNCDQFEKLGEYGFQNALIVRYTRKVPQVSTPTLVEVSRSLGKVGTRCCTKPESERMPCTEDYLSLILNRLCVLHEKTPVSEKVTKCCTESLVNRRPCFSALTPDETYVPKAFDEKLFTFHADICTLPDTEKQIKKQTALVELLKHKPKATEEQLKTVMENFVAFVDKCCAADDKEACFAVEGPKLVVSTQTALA

| Molecule | Kd (bOBP [1]) | Kd (pOBP [2]) | %RPA, pOBP (pOBP [3]) | %RPA, BSA [4] | Tm of pOBP in the presence of VOC (pOBP [5]; saturating VOC concentration (1-octen-3-ol 5 mM)) | effect of VOC on thermal stability (Tm) of pOBP (pOBP [5]) | Kd (pOBP [2]; [9]) | Kd (pOBP [2]; [10]) | effect of VOC on thermal stability (Tm) of bOBP (bOBP [6]) | unfolding transition temperature of pOBP (pOBP [7]) | melting temperature (Tm) of pOBP (pOBP [5]; no VOC, Boltzmann fitting, emission 340 nm, 25-95 °C) | Stern-Volmer constant K_SV, pOBP (pOBP [8]) |
| --- | --- | --- | --- | --- | --- | --- | --- | --- | --- | --- | --- | --- |
| Nc1cccc2cc3ccccc3cc12 [1-AMA, 1-aminoanthracene, reference compound] | 2680 ± 460 nM | 2.03 ± 0.13 µM | – | – | – | – | – | – | – | – | – | – |
| C=CC(O)CCCCC (stereo not drawn) [1-octen-3-ol] | – | – | 708.1 ± 2.7 %RPA | 226.7 ± 8.9 %RPA | 64 ± 1.45 °C | significantly stabilized | 479 µM | 479 ± 53 µM | – | – | – | – |
| CCCCCO [1-pentanol] | – | – | 425.0 ± 8.3 %RPA | 242.5 ± 5.1 %RPA | – | significantly stabilized | 1860 µM | 1800 ± 1200 µM | highest stability | – | – | – |
| CCC(C)=O [2-butanone] | – | – | 926.7 ± 10.3 %RPA | 276.2 ± 2.7 %RPA | – | significantly stabilized | – | 934 ± 56 µM | – | – | – | – |
| pOBP: porcine odorant-binding protein, a typical monomeric lipocalin used as molecular recognition element (protein, UniProt P81245 1-157, looked up) Odorant-binding protein: QEPQPEQDPFELSGKWITSYIGSSDLEKIGENAPFQVFMRSIEFDDKESKVYLNFFSKENGICEEFSLIGTKQEGNTYDVNYAGNNKFVVSYASETALIISNINVDEEGDKTIMTGLLGKGTDIEDQDLEKFKEVTRENGIPEENIVNIIERDDCPA | – | – | – | – | – | – | – | – | – | approximately 69 °C | 62 ± 0.4 °C | 3 ± 1 M^−1 |
